Results from ChEMBL document CHEMBL1159194, “Two pimarane diterpenoids from Ephemerantha lonchophylla and their evaluation as modulators of the multidrug resistance phenotype” (J Nat Prod, 1998).
Activity calls are given as the source filed them. The rule behind the calls is not given here.

Assays:
[1] = molecular target: ATP-dependent translocase ABCB1 (Homo sapiens, UniProt P08183); test: Inhibition of human MDR1 expressed in mouse B16/F10 cells assessed as increase in doxorubicin accumulation by fluorimetry; format: cell-based; conditions: read-out: ED50 (the source's name)
Sequence of ATP-dependent translocase ABCB1 (P08183 whole entry): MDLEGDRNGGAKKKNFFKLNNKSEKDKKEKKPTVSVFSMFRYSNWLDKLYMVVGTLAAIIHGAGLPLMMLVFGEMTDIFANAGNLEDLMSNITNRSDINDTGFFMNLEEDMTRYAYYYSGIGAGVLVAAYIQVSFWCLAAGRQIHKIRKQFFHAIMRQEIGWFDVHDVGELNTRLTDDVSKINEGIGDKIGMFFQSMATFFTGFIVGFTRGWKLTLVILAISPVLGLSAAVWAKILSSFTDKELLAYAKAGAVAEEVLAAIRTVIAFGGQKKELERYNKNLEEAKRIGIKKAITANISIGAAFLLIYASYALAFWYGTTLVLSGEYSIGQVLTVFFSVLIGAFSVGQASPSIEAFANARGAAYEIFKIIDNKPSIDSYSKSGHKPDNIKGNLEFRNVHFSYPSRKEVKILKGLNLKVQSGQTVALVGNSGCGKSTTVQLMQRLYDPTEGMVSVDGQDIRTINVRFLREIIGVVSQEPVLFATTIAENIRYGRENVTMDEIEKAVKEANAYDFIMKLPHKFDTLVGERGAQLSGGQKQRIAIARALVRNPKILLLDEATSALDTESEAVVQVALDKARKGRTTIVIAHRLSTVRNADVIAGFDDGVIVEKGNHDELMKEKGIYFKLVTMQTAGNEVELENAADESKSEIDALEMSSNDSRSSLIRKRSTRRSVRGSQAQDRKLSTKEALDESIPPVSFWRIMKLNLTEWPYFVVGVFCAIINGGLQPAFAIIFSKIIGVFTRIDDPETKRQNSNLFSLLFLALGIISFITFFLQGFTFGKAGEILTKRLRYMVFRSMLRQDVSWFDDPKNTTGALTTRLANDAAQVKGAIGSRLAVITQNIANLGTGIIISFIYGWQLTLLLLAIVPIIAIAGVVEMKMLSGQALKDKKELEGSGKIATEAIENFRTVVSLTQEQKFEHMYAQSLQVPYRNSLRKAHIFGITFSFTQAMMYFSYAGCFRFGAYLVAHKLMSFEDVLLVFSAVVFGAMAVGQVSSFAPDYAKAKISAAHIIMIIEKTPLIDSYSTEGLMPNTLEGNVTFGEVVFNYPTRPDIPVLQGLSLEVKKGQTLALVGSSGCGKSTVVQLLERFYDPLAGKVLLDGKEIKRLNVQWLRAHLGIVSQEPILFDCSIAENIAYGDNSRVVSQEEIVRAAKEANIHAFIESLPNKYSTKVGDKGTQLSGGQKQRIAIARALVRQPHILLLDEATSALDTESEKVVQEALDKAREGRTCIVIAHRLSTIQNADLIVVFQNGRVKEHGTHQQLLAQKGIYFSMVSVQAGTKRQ

B16-F10 = test: Effect on doxorubicin accumulation in mouse B16/F10 cells by fluorimetry; format: functional, cell-based

SMILES	EC50 [1] [µM]	Activity (B16-F10)
CC1(C)[C@@H](O)CC[C@]2(C)[C@H]3CC[C@@](C)(C(=O)CO)C=C3CC[C@@H]12 [LONCHOPHYLLOID B]	195	inactive
CC1(C)C(=O)C(O)=C[C@]2(C)[C@H]3CC[C@@](C)(C(=O)CO)C=C3CC[C@@H]12 [LONCHOPHYLLOID A]	193	inactive
